Source: the supplement of paper PMC11451515

Tested on: P12-Ichikawa
Assay: cell viability relative to DMSO control; higher = less cytotoxic
Conditions: 48 h
Outline: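 NOMO1 or SEM cells were plated at 500 cells/well and P12-Ichikawa cells at 1000 cells/well in 1536-well plates (5 μl), after each leukemia line had been adapted for at least four passages in each medium. Pin dosing delivered library compounds in DMSO at 11 threefold concentrations, 47 μM to 0.79 nM. CellTiter-Glo One luminescence was read after 48 h at 37°C. Viability is reported as a per-plate percentage of DMSO wells, with cell-free wells as background.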

[1] = HPLM + 10% dialyzed FBS, 0.000781 µM
[2] = HPLM + 10% dialyzed FBS, 0.00234 µM
[3] = HPLM + 10% dialyzed FBS, 0.00702 µM
[4] = HPLM + 10% dialyzed FBS, 0.0211 µM
[5] = HPLM + 10% dialyzed FBS, 0.0632 µM
[6] = HPLM + 10% dialyzed FBS, 0.19 µM
[7] = HPLM + 10% dialyzed FBS, 0.569 µM
[8] = HPLM + 10% dialyzed FBS, 1.71 µM
[9] = HPLM + 10% dialyzed FBS, 5.12 µM
[10] = HPLM + 10% dialyzed FBS, 15.4 µM
[11] = HPLM + 10% dialyzed FBS, 46.1 µM
[12] = RPMI 5 mM glucose + 10% FBS, 0.000781 µM
[13] = RPMI 5 mM glucose + 10% FBS, 0.00234 µM
[14] = RPMI 5 mM glucose + 10% FBS, 0.00702 µM
[15] = RPMI 5 mM glucose + 10% FBS, 0.0211 µM
[16] = RPMI 5 mM glucose + 10% FBS, 0.0632 µM
[17] = RPMI 5 mM glucose + 10% FBS, 0.19 µM
[18] = RPMI 5 mM glucose + 10% FBS, 0.569 µM
[19] = RPMI 5 mM glucose + 10% FBS, 1.71 µM
[20] = RPMI 5 mM glucose + 10% FBS, 5.12 µM
[21] = RPMI 5 mM glucose + 10% FBS, 15.4 µM
[22] = RPMI 5 mM glucose + 10% FBS, 46.1 µM
[23] = RPMI 5 mM glucose + 10% dialyzed FBS, 0.000781 µM
[24] = RPMI 5 mM glucose + 10% dialyzed FBS, 0.00234 µM
[25] = RPMI 5 mM glucose + 10% dialyzed FBS, 0.00702 µM
[26] = RPMI 5 mM glucose + 10% dialyzed FBS, 0.0211 µM
[27] = RPMI 5 mM glucose + 10% dialyzed FBS, 0.0632 µM
[28] = RPMI 5 mM glucose + 10% dialyzed FBS, 0.19 µM
[29] = RPMI 5 mM glucose + 10% dialyzed FBS, 0.569 µM
[30] = RPMI 5 mM glucose + 10% dialyzed FBS, 1.71 µM
[31] = RPMI 5 mM glucose + 10% dialyzed FBS, 5.12 µM
[32] = RPMI 5 mM glucose + 10% dialyzed FBS, 15.4 µM
[33] = RPMI 5 mM glucose + 10% dialyzed FBS, 46.1 µM

SMILES | cell viability [1] [%] | cell viability [2] [%] | cell viability [3] [%] | cell viability [4] [%] | cell viability [5] [%] | cell viability [6] [%] | cell viability [7] [%] | cell viability [8] [%] | cell viability [9] [%] | cell viability [10] [%] | cell viability [11] [%] | cell viability [12] [%] | cell viability [13] [%] | cell viability [14] [%] | cell viability [15] [%] | cell viability [16] [%] | cell viability [17] [%] | cell viability [18] [%] | cell viability [19] [%] | cell viability [20] [%] | cell viability [21] [%] | cell viability [22] [%] | cell viability [23] [%] | cell viability [24] [%] | cell viability [25] [%] | cell viability [26] [%] | cell viability [27] [%] | cell viability [28] [%] | cell viability [29] [%] | cell viability [30] [%] | cell viability [31] [%] | cell viability [32] [%] | cell viability [33] [%]
OC(=O)\C1=C\N(C2=CC=C(F)C=C2)C3=C(C=C(F)C(=C3)N4CCNCC4)C1=O | 121 | 116 | 112 | 124 | 124 | 117 | 114 | 115 | 108 | 103 | 91 | 126 | 118 | 118 | 120 | 117 | 113 | 112 | 121 | 117 | 99.1 | 92.1 | 119 | 111 | 115 | 115 | 104 | 114 | 111 | 102 | 108 | 91.5 | 87.2
CC(C)[C@@H](C[S+](=O)([O-])C(C)C)N1C(=O)[C@@](C)(CC(=O)O)C[C@H](c2cccc(Cl)c2)[C@H]1c1ccc(Cl)cc1 | 109 | 103 | 108 | 106 | 113 | 71.2 | 17.2 | 14 | 15.4 | 17.7 | 15.6 | 109 | 111 | 114 | 114 | 120 | 107 | 63.3 | 50.6 | 21.7 | 11.7 | 12.1 | 119 | 117 | 120 | 123 | 122 | 112 | 81.2 | 59.7 | 25.7 | 18.1 | 21.1
CCOc1ccc(Nc2nc(-c3c(C)nc4ccccn34)cs2)cc1 | 117 | 116 | 116 | 103 | 53.8 | 19.3 | 26.3 | 24.1 | 16.3 | 14.5 | 9.9 | 116 | 121 | 129 | 109 | 72.8 | 16.7 | 19.6 | 19.6 | 22.3 | 17.5 | 9.84 | 104 | 116 | 110 | 108 | 94.2 | 28.9 | 29.6 | 30.3 | 27.3 | 28.1 | 14.8
CCN(CC)C(=S)SSC(=S)N(CC)CC | 104 | 106 | 118 | 120 | 117 | 109 | 119 | 122 | 4.64 | 10.4 | 9.15 | 103 | 98.6 | 112 | 122 | 119 | 115 | 115 | 116 | 4.29 | 5.91 | 4.43 | 104 | 105 | 116 | 115 | 115 | 112 | 108 | 115 | 4 | 3.98 | 3.13
Cc1cccc(C#Cc2ccccc2)n1 | 120 | 128 | 124 | 124 | 125 | 122 | 112 | 121 | 113 | 117 | 105 | – | – | – | – | – | – | – | – | – | – | – | – | – | – | – | – | – | – | – | – | – | –
C[N+]1(C)[C@@H]2C[C@@H](OC(=O)[C@H](CO)c3ccccc3)C[C@H]1[C@@H]1O[C@@H]12.[Br-] | 88.6 | 94.2 | 94.3 | 102 | 104 | 104 | 96.9 | 90.8 | 100 | 106 | 102 | 95 | 103 | 105 | 99.1 | 108 | 99.2 | 101 | 98.7 | 97.8 | 122 | 110 | 82.4 | 47.6 | 90.7 | 90.7 | 97.8 | 99.5 | 101 | 89.9 | 91.2 | 99.6 | 103
Cn1c(Nc2ccc(C(F)(F)F)cc2)nc2cc(Oc3ccnc(-c4nc(C(F)(F)F)c[nH]4)c3)ccc21 | 120 | 112 | 119 | 93 | 133 | 125 | 126 | 123 | 111 | 81.8 | 27.1 | – | – | – | – | – | – | – | – | – | – | – | – | – | – | – | – | – | – | – | – | – | –
CCC1(c2ccc(N)cc2)CCC(=O)NC1=O (stereo not given) | 116 | 113 | 109 | 111 | 121 | 110 | 109 | 98.2 | 101 | 96.7 | 91.7 | 125 | 120 | 120 | 111 | 110 | 115 | 114 | 98.9 | 102 | 109 | 106 | 115 | 116 | 114 | 116 | 109 | 108 | 104 | 96.4 | 93.6 | 97.9 | 88
CCc1c(C(=O)C(N)=O)c2c(OCC(=O)O)cccc2n1Cc1ccccc1 | 105 | 112 | 112 | 105 | 107 | 111 | 106 | 111 | 103 | 107 | 99.5 | 102 | 101 | 102 | 104 | 105 | 98.1 | 96.5 | 99.4 | 94.8 | 93.6 | 95.3 | 99.4 | 107 | 102 | 98.4 | 99.9 | 94.4 | 91.8 | 97.3 | 92.3 | 95.8 | 91.3
OC[C@H](Cc1ccccc1)Nc1nc(Oc2ccc3c(c2)CCC3)nc2c1ncn2Cc1ccc(-c2ccccc2)cc1 | 93 | 94.1 | 98.7 | 102 | 96.4 | 99.1 | 105 | 94.3 | 95.4 | 82.7 | 79.2 | 90.8 | 93.3 | 89 | 90.5 | 94.7 | 89.5 | 91 | 97.3 | 90.1 | 86 | 75.1 | 79.6 | 88.4 | 90.9 | 99 | 99.8 | 89.3 | 90.8 | 87.7 | 88.9 | 72.4 | 68.4
C[S+](=O)([O-])N(Cc1ccco1)CC(O)Cn1c2ccccc2c2ccccc21 (stereo not given) | 94.2 | 88.9 | 94.2 | 99.9 | 96.3 | 98.8 | 94.8 | 89.8 | 89.3 | 85.8 | 56.6 | 92 | 94 | 92 | 89.2 | 97.7 | 99.2 | 91.9 | 83.6 | 76.4 | 79.2 | 42.1 | 86 | 90.7 | 97 | 97.1 | 94.4 | 87.1 | 81.3 | 88.8 | 85.7 | 73.4 | 41.7
CC(C)(C)c1cc(C=C(C#N)C#N)cc(Br)c1O | 96.9 | 116 | 74.7 | 114 | 122 | 122 | 123 | 120 | 121 | 116 | 104 | 101 | 110 | 67.7 | 117 | 115 | 123 | 124 | 113 | 123 | 121 | 100 | 106 | 114 | 79.7 | 116 | 126 | 132 | 117 | 132 | 130 | 113 | 110
CCOC(=O)N1CCN(/[N+]([O-])=N/Oc2ccc([N+](=O)[O-])cc2[N+](=O)[O-])CC1 | 93.7 | 94.7 | 96 | 97.1 | 98.2 | 102 | 101 | 97 | 95.5 | 96.9 | 27.1 | 91.6 | 96.5 | 88 | 90.6 | 102 | 99.2 | 99.8 | 97.1 | 84.3 | 78.7 | 19.9 | 92 | 83.9 | 87.7 | 88.3 | 88.4 | 86.4 | 90.1 | 85.9 | 82.8 | 82.8 | 18.8
